Assay results as given in US20220117958A1, “COMPOSITIONS AND METHODS FOR INHIBITING ACSS2” (THE TRUSTEES OF THE UNIVERSITY OF PENNSYLVANIA, priority 2018, published 2022).
Values after ≈ are worked out from the molar mass of the structure shown. Values joined by “and” are separate entries in the source; they are usually repeats but may differ in a detail not shown here. Equal values may be shown once. “Also recorded” adds a separate entry of the source. Marks after values point to notes of the source that are not given here.

Tests used:
[1] = In vivo PK, IV dose, plasma; set-up: species or system Rat (SD); conditions: for Plasma concentration, mean / Plasma concentration, individual animal: IV 1 mg/kg
Description: (§1) Table 20 provides results of in vitro and in vivo pharmacokinetics performed for each of the represented compounds.
(§2) Tables 4 and 5 depict the summary of rat plasma sample concentrations after administration of ADG I-204. FIG. 6 provides a summary of rat plasma and brain concentrations.

H3K9ac = test: Western blot, differentiated CAD cell lysates, H3K9ac levels; type: cell-based; conditions: differentiated CAD cells, DMSO = 100.00%
Description: as §1

[2] = In vivo PK, oral gavage, plasma; set-up: species or system Rat (SD); conditions: Rat, PO 5 mg/kg, BQL limit 1.00 ng/mL, listed as ADG I-205, 5 mg/kg
[3] = Microsomal stability assay (half-life), human; type: in vitro ADME; conditions: Human microsomes, read-out: Microsomal stability T1/2
Description: as §1

[4] = Microsomal stability assay (half-life), rat; type: in vitro ADME; conditions: Rat (SD) microsomes, read-out: Microsomal stability T1/2
Description: as §1

[5] = tested on: primary hippocampal neurons; test: RNA-seq, acetate-induced transcription in primary hippocampal neurons; type: cell-based, mouse
Protocol: Alcohol and acetate have pleiotropic effects on brain circuitry and metabolism. Utilizing isolated mouse primary hippocampal neurons, the transcriptional response to supraphysiological levels of acetate (cells were cultured for one week after isolation and subsequently treated with 5 mM acetate for 24 hours) that mimics exogenous acetate influx during alcohol intake was investigated. Further, to determine the specific role of ACSS2 in transcriptional responses to acetate, a highly specific small molecule inhibitor of ACSS2 (ACSS2i ADG-205: C20H18N4O2S2, FIG. 15A) was employed.

[6] = Turbidity-based aqueous solubility; type: physicochemical; conditions: aqueous solution (composition not given), kinetic from dmso stock, read-out: highest soluble concentration
Description: as §1

[7] = Microsomal stability assay (half-life), mouse; type: in vitro ADME; conditions: Mouse (CD1) microsomes, read-out: Microsomal stability T1/2
Description: as §1

[8] = In vivo PK, IV dose, Terminal - brain (brain availability); set-up: species or system Rat (SD); conditions: for Brain concentration, mean / Brain concentration, individual animal: IV 1 mg/kg
Protocol: Table 3 and FIG. 5 depict the brain availability of ADG I-204, ADG I-205, ADG I-206, and ADG I-207 after IV administration of 1 mg/kg dose.

mice [9] = test: Fear reconsolidation behavioral study; type: in vivo; conditions: 2 mg/kg immediately before and 30 min after each of 4 dosed cue-recall sessions, versus DMSO
Protocol: 3 CS-US pairings were performed: tone is 30 seconds long co-terminating with 2 second, 1 mA shock. No drug or vehicle was administered.
Subsequent to the acquisition, and following the schedule provided, above, recall and reconsolidation sessions ensued. The cage was altered in context (floor board, walls, vanilla scent). The same paradigm as acquisition was used for reconsolidation and recall exposures but no shock was delivered. The following procedure was followed: (1) 2 min habituation to box; (2) 30 sec tones; (3) 1 min it is.
Injections of ADG-205c or DMSO at dosage of 2 mg/kg are administered at the following time points: Immediately before reconsolidation/recall; and then 30 minutes following reconsolidation/recall.

[10] = Protein binding via Rapid Equilibrium Dialysis - plasma; type: in vitro ADME; conditions: Rat (SD) plasma, 2 μM
Description: as §1

mice [11] = test: Object-location memory paradigm; type: in vivo; conditions: recall phase, versus DMSO injected
Protocol: FIG. 29 depicts a graph showing the time spent interacting with an individual object relative to the total time spent interacting with all objects.
To assess hippocampus-dependent spatial memory, an object-location memory paradigm is used. Animals explore three different objects during training, and long-term memory is tested by re-exposure 24 hours later with one object moved to a different location. In training, control and inhibitor treated mice show no difference in exploration. During memory retrieval, control mice show increased exploration of the object that had been moved. By contrast, mice treated with an ACSS2 inhibitor are impaired in spatial object memory and display a lower discrimination index.
The conditions were blind as it relates to the injection (DMSO versus ADG-205c) and the locations of objects (those in the same location versus novel location). An online stopwatch interface was used that allowed use 3 simultaneous timer, one for each object. Each timer was stopped individually as the mouse interacted with a given object. […] Some mice remained stationary for substantial amounts of time relative to the others—some appearing apprehensive huddled in a corner, some spending time grooming.

[12] = In vivo PK, oral gavage, plasma; set-up: species or system Rat (SD); conditions: SD, rat, plasma, po, 5 mg/kg
Description: as §1, §2

COCCNC(=O)Nc1ccc2nc(-c3cccs3)c(-c3cccs3)nc2c1 [ADG-205c, 1-(2,3-di(thiophen-2-yl)quinoxalin-6-yl)-3-(2-methoxyethyl)urea]
Plasma concentration, mean ([1]; Rat (SD), 8 hr, terminal, listed as ADG I-205, 1 mg/kg): 29 ng/mL
Plasma concentration, mean ([1]; Rat (SD), 24 hr, terminal, BQL limit 1.00 ng/mL (ADG I-205: 2.00 ng/mL), 1 mg/kg): 3 ng/mL
Plasma concentration, individual animal ([1]; Rat, 0.0830 hr, terminal, third animal received only 70% of the test article, listed as ADG I-205, 1 mg/kg): 2310 ng/mL and 1700 ng/mL and 865*** ng/mL
Plasma concentration, individual animal ([1]; Rat, 0.500 hr, not terminal (animals 4, 5 and 6), listed as ADG I-205, 1 mg/kg): 8520** ng/mL and 1380 ng/mL and 1470 ng/mL
Plasma concentration, individual animal ([1]; Rat, 1.00 hr, terminal, listed as ADG I-205, 1 mg/kg): 895 ng/mL and 1190 ng/mL
Plasma concentration, individual animal ([1]; Rat, 4.00 hr, terminal, BQL limit 1.00 ng/mL (ADG I-205: 2.00 ng/mL), 1 mg/kg): 187 ng/mL and 92.3 ng/mL
Plasma concentration, individual animal ([1]; Rat, 8.00 hr, terminal, BQL limit 1.00 ng/mL (ADG I-205: 2.00 ng/mL), 1 mg/kg): 27.0 ng/mL and 31.9 ng/mL
Plasma concentration, individual animal ([1]; Rat, 24.0 hr, terminal, BQL limit 1.00 ng/mL (ADG I-205: 2.00 ng/mL), 1 mg/kg): BQL
concentration at 0.083 h ([1]; SD, rat, plasma, iv, 1 mg/kg, Rat (SD), 0.083 hr, terminal, read-out: Plasma concentration, mean): 1630 ng/mL
concentration at 0.5 h ([1]; SD, rat, plasma, iv, 1 mg/kg, Rat (SD), 0.500 hr, not a terminal time point (animals 4, 5 and 6)): 3790 ng/mL
concentration at 1 h ([1]; SD, rat, plasma, iv, 1 mg/kg, Rat (SD), 1 hr, terminal, read-out: Plasma concentration, mean): 1040 ng/mL
concentration at 4 h ([1]; SD, rat, plasma, iv, 1 mg/kg, Rat (SD), 4 hr, terminal, read-out: Plasma concentration, mean): 140 ng/mL
concentration at 8 h ([1]; SD, rat, plasma, iv, 1 mg/kg, Rat (SD), 8 hr, terminal, read-out: Plasma concentration, mean): 29.1 ng/mL
concentration at 24 h ([1]; SD, rat, plasma, iv, 1 mg/kg, Rat (SD), 24 hr, terminal, BQL limit 1.00 ng/mL (ADG I-205: 2.00 ng/mL), read-out: Plasma concentration, mean): 2.63 ng/mL
concentration at 1 h ([1]; SD, rat, plasma, iv, 1 mg/kg, Rat, 1.00 hr, terminal, read-out: Plasma concentration, individual animal): 1030 ng/mL
concentration at 8 h ([1]; SD, rat, plasma, iv, 1 mg/kg, Rat, 8.00 hr, terminal, BQL limit 1.00 ng/mL (ADG I-205: 2.00 ng/mL), read-out: Plasma concentration, individual animal): 28.5 ng/mL
concentration at 24 h ([1]; SD, rat, plasma, iv, 1 mg/kg, Rat, 24.0 hr, terminal, BQL limit 1.00 ng/mL (ADG I-205: 2.00 ng/mL), read-out: Plasma concentration, individual animal): 2.63 ng/mL
H3K9ac levels normalized to H3 and DMSO control (H3K9ac; 1 uM): 21.62%
H3K9ac levels normalized to H3 and DMSO control (H3K9ac; 5 uM): 17.18%
H3K9ac levels normalized to H3 and DMSO control (H3K9ac; 10 uM): 14.26%
H3K9ac levels normalized to H3 and DMSO control (H3K9ac; 20 uM): 21.52%
H3K9ac levels normalized to H3 and DMSO control (H3K9ac; 50 uM): 29.67%
H3K9ac levels normalized to H3 and DMSO control (H3K9ac; 100 uM): 16.42%
Plasma concentration, individual animal ([2]; 0.250 hr): 30.4 ng/mL and 73.0 ng/mL and 147 ng/mL
Plasma concentration, individual animal ([2]; 0.500 hr): 145 ng/mL and 298 ng/mL and 669 ng/mL
Plasma concentration, individual animal ([2]; 1.00 hr): 550 ng/mL and 906 ng/mL
Plasma concentration, individual animal ([2]; 4.00 hr): 710 ng/mL and 430 ng/mL and 938 ng/mL
Plasma concentration, individual animal ([2]; 8.00 hr): 531 ng/mL and 235 ng/mL and 297 ng/mL
Plasma concentration, individual animal ([2]; 24.0 hr): 3.51 ng/mL and 1.48 ng/mL and 4.19 ng/mL
half-life at 2 μM [3]: 27.8 min
half-life at 2 μM [4]: 11.6 min
Number of the 3613 acetate-induced genes that fail to be upregulated in the presence of inhibitor ([5]; 5 mM acetate, 24 hours, RNA-seq): 2107 genes
Slc17a7 induction upon acetate treatment ([5]; acetate, ACSS2 inhibited): induction was diminished
Acetate induction of ACSS2 target genes with alcohol-induced H3K9ac ([5]; hippocampal neurons ex vivo, acetate): blocks this gene induction
Acetate induction of ACSS2 target genes with alcohol-induced H3K27ac ([5]; hippocampal neurons ex vivo, acetate, listed as ACSS2i): failed to be induced; also recorded: blocks this gene induction
Regulation of acetate-induced genes by inhibitor in the absence of acetate ([5]; no acetate): not regulated
solubility [6]: 5 µM (≈ 2.05 µg/mL)
half-life at 2 μM [7]: 4.72 min
Brain concentration, mean ([8]; Rat (SD), 4 hr, BQL limit 10.0 ng/g (204, 206), 20.0 ng/g (205, 207), listed as ADG I-205, 1 mg/kg): 23 ng/g
Brain concentration, mean ([8]; Rat (SD), 8 hr, BQL limit 10.0 ng/g (204, 206), 20.0 ng/g (205, 207)): BQL
Brain concentration, mean ([8]; Rat (SD), 24 hr, BQL limit 10.0 ng/g (204, 206), 20.0 ng/g (205, 207)): BQL
Brain concentration, individual animal ([8]; Rat, 0.0830 hr, third animal received only 70% of the test article, listed as ADG I-205, 1 mg/kg): 544 ng/g and 487 ng/g and 213*** ng/g
Brain concentration, individual animal ([8]; Rat, 1.00 hr, listed as ADG I-205, 1 mg/kg): 102 ng/g and 171 ng/g
Brain concentration, individual animal ([8]; Rat, 4.00 hr, BQL limit 10.0 ng/g (204, 206), 20.0 ng/g (205, 207), listed as ADG I-205, 1 mg/kg): BQL
Brain concentration, individual animal ([8]; Rat, 8.00 hr, BQL limit 10.0 ng/g (204, 206), 20.0 ng/g (205, 207)): BQL
Brain concentration, individual animal ([8]; Rat, 24.0 hr, BQL limit 10.0 ng/g (204, 206), 20.0 ng/g (205, 207)): BQL
concentration at 0.083 h ([8]; SD, rat, brain, iv, 1 mg/kg, Rat (SD), 0.083 hr): 415 ng/g
concentration at 1 h ([8]; SD, rat, brain, iv, 1 mg/kg, Rat (SD), 1 hr, read-out: Brain concentration, mean): 135 ng/g
concentration at 4 h ([8]; SD, rat, brain, iv, 1 mg/kg, Rat (SD), 4 hr, BQL limit 10.0 ng/g (204, 206), 20.0 ng/g (205, 207), read-out: Brain concentration, mean): 23.4 ng/g
concentration at 1 h ([8]; SD, rat, brain, iv, 1 mg/kg, Rat, 1.00 hr, read-out: Brain concentration, individual animal): 132 ng/g
concentration at 4 h ([8]; SD, rat, brain, iv, 1 mg/kg, Rat, 4.00 hr, BQL limit 10.0 ng/g (204, 206), 20.0 ng/g (205, 207), read-out: Brain concentration, individual animal): 23.4 ng/g
Fear response (freezing) after reconsolidation sessions (mice [9]): observable reduced fear response
Protein binding, plasma: % Protein free [10]: 0.2915 % Protein free
Preference for object moved to novel location (time interacting with object relative to all objects) (mice [11]): very little preference for one object
concentration at 0.25 h ([12]; Rat (SD), 0.25 hr, BQL = below quantitation limit (1.00 ng/mL), read-out: Plasma concentration, mean): 83.5 ng/mL
concentration at 0.5 h ([12]; Rat (SD), 0.5 hr, BQL = below quantitation limit (1.00 ng/mL), read-out: Plasma concentration, mean): 371 ng/mL
concentration at 1 h ([12]; Rat (SD), 1 hr, BQL = below quantitation limit (1.00 ng/mL), read-out: Plasma concentration, mean): 641 ng/mL
concentration at 4 h ([12]; Rat (SD), 4 hr, BQL = below quantitation limit (1.00 ng/mL)): 693 ng/mL
concentration at 8 h ([12]; Rat (SD), 8 hr, BQL = below quantitation limit (1.00 ng/mL), read-out: Plasma concentration, mean): 354 ng/mL
concentration at 24 h ([12]; Rat (SD), 24 hr, BQL = below quantitation limit (1.00 ng/mL), read-out: Plasma concentration, mean): 3.06 ng/mL
concentration at 1 h ([12]; Rat, 1.00 hr, BQL limit 1.00 ng/mL, read-out: Plasma concentration, individual animal): 466 ng/mL
